For data set [1] the following is noted: pharmaceutical solvents; cited from earlier work.
A further data set relates to H23 shCtrl/shCav-1 cells. The data set is described as follows: Uptake by direct fluorescence in H23 shCtrl vs shCav-1 cells. As to conditions: 250 nM pulsed 2 h. Format: cell-based. The protocol: (§1) Cells were pulsed either 1 hour with 0.1% FITC-HAS or 2 hours with 250 nM SN/38/SSH20 prior to fixation. When applicable, in order to remove membrane-bound albumin, two acid/salt washes were performed with 0.1M glycine and 0.1M NaCl, pH 3.02 for 2 minutes each, followed by two washes with phosphate buffer saline (PBS). Cells were then fixed with 2% paraformaldehyde for 15 minutes at room temperature and washed 1×PBS 2 times for 5 minutes each. Cells were incubated with 0.1% Triton-x-100 for 10 min on ice to permeabilize, then washed twice with 1×PBS prior to blocking with 3% bovine serum albumin in 1×PBS overnight at 4° C. In a humidified chamber, primary antibodies (1:50) in blocking buffer were added and incubated for 1 hour at 4° C., followed by three 10 minute rinses with blocking buffer. Secondary antibody (conjugated to Alexa Fluor 488, 1:1000) was added along with DAPI for 1 hour at room temperature. Cells were then rinsed, and coverslips were mounted onto slides and then sealed. Cells were then imaged with a confocal microscope with locked settings across the control and respective experimental conditions. For auto-fluorescence experiments with SN-30 and SSH20, images were taken at an emission wavelength of 543 nm. ImageJ was used to measure the fluorescence intensity of individual cells.

A further data set relates to MP2 cell line. The data set is described as follows: Inhibitory activity of SN-38/HSA conjugates against the MP2 cell line. It counts as cell-based. The protocol: AlamarBlue proliferation assay was performed according to the manufacturer's instructions (BioRad Antibodies, Oxford, UK). Briefly, cells were seeded in 96-well plates in 4 replicates at a density of 100-300 cells per well in 100 μL medium and treated as described. Seventy-two hours after plating, alamarBlue reagent was added and incubated at 37° C. for 4-8 hours, and absorbance was measured at 570 and 600 nm.

Data set [2] concerns MIA-PaCa-2 (MP2) shCtrl/shCav-1 cells. The experiment in a line: Uptake by direct fluorescence in MP2 shCtrl vs shCav-1 cells. To be noted: 250 nM pulsed 2 h. Format: cell-based. The protocol:
as §1

For data set [3], the system named is H23-shCtrl/shCav-1 tumors. The experiment in a line: H23-shCtrl/shCav-1 flank xenografts in athymic nude mice. It counts as in vivo. As to conditions: SSH20 10 mg/kg or molar equivalent of irinotecan, intravenous retro-orbital. The protocol:
(§2) Briefly, 180 μL of SSH20 was added to 1620 μL of pooled human serum off the clot (Innovative Research, Novi, MI) to form a 10% SSH20 solution, which was incubated at 37° C. Aliquots were collected at preset time points, a fixed amount of internal standard (10-hydroxycamptothecin, 10-HCPT) was added to each sample aliquot and the solutions were mixed thoroughly on vortex prior to protein precipitation by acetonitrile. Protein precipitates were pulled down by 17,000×g centrifugation for 5 minutes. The dissociated SN-38 in the supernatant was analyzed by reverse-phase HPLC, using parameters described above, detected by PDA at 368 nm. SN-38/internal standard peak ratios were correlated with an SN-38 standard curve (using the same preparation method) to obtain the concentrations of released SN-38. The plot of the kinetics of SN-38 release was generated by Prism, and the half-life was calculated by one-phase exponential association. […] To obtain a tumor growth curve, perpendicular diameter measurements of each tumor were measured every 1-5 days from the first day of injection with digital calipers, and volumes were calculated using the formula (L×W×W)/2. Weight and clinical signs of toxicity were monitored several times per week.

For data set [4], the system named is MP2-shCtrl/shCav-1 tumors. The experiment in a line: MP2-shCtrl/shCav-1 flank xenografts in athymic nude mice. It counts as in vivo. To be noted: SSH20 10 mg/kg or molar equivalent of irinotecan, intravenous retro-orbital. The protocol: as §2

Structures are written as SMILES.

As usually defined, the IC50 is the concentration needed to halve the response being measured. A higher IC50 goes with weaker potency in that assay. Regarding `CCc1c2c(nc3ccc(O)cc13)-c1cc3c(c(=O)n1C2)COC(=O)[C@]3(O)CC` [SN-38, 7-ethyl-10-hydroxy-camptothecin], the “solubility, in words” value in data set [1] is “virtually insoluble in any pharmaceutical solvent”. Besides, the “difference in SN-38 autofluorescent signal between shCtrl and shCav-1 cells” value (in the data set on H23 shCtrl/shCav-1 cells; in data set [2]) was “no discernable difference” throughout. This compound also displayed an IC50 in the data set on MP2 cell line of 0.495 µM.
As to `CCc1c2c(nc3ccc(OC(=O)N4CCC(N5CCCCC5)CC4)cc13)-c1cc3c(c(=O)n1C2)COC(=O)[C@]3(O)CC` [irinotecan, Irinotecan], the tumor growth rate entry in data set [3] and in data set [4] was “not reduced” throughout.

Values taken from US20240398786A1, “7-ETHYL-10-HYDROXY-CAMPTOTHECIN (SN-38) ALBUMIN CONJUGATES FOR TREATMENT OF CANCERS” (Ohio State Innovation Foundation, priority 2021, published 2024).
